# Measurements as given in the supplement of paper PMC6723410.
# Tests used:
# [1] = system: GUMC-403; experiment: viability at highest tested concentration (max response) relative to DMSO (% of DMSO control); higher = less cytotoxic; conditions: library / dose series: MIPE library, 11-point 1:3 dilution, 48 h
# Summary of the method: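 Patient-derived GUMC-403 papilloma cells grown by conditional reprogramming were plated at 700/well in 5 μL F + Y medium in 1536-well plates and incubated overnight at 37 °C. They then received 23 nL of MIPE 4.0 compounds by pin tool (11-point 1:3 series) for 48 h. CellTiter-Glo luminescence was read on a ViewLux and normalised with DMSO wells as 100% and empty wells as 0%. The value is viability at the highest tested concentration relative to DMSO control.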
# [2] = system: GUMC-403; experiment: AC50 for reduction of cell viability; higher = less potent; conditions: library / dose series: MIPE library, 11-point 1:3 dilution; 48 h
compound,measurement,setting,value
O=C1\C=C(/OC2=C1C=CC=C2C3=CC=CC=C3)N4CCOCC4,viability,[1]; top concentration 46.1 µM,61.6
same,AC50 for reduction of cell viability,[2],5900 nM
COC1=C(OCCCN2CCOCC2)C=CC\3=C1/N=C(/NC(=O)C4=CN=C(N)N=C4)N5CC/N=C35,viability,[1]; top concentration 23 µM,43.9
same,AC50 for reduction of cell viability,[2],64.5 nM
Cc1cc(Nc2ncc3c(n2)N(C)C(=O)N(c2cc(NC(=O)c4cccc(C(F)(F)F)c4)ccc2C)C3)n(C)n1,viability,[1]; top concentration 46.1 µM,53.5
same,AC50 for reduction of cell viability,[2],743 nM
CC[C@@H]1[C@@H](C)O[C@@](O)([C@@H](C)[C@H](O)[C@H](C)[C@H]2OC(=O)/C=C/C=C/[C@H](C)[C@@H]([C@@H](C)[C@@H](O)[C@H](C)[C@@]3(O)C[C@@H](O[C@H]4C[C@H](O)[C@H](O)[C@H](C)O4)[C@H](CC)[C@@H](C)O3)OC(=O)/C=C/C=C/[C@@H]2C)C[C@H]1O[C@H]1C[C@H](O)[C@H](O)[C@H](C)O1,viability,[1]; top concentration 46.1 µM,8.03
same,AC50 for reduction of cell viability,[2],26400 nM
Clc1ccc(C(c2ccc(Cl)cc2)[n+]2ccn(CC(OCc3ccc(Cl)cc3Cl)c3ccc(Cl)cc3Cl)c2)cc1 (stereo not given),viability,[1]; top concentration 46.1 µM,25.1
same,AC50 for reduction of cell viability,[2],20900 nM
C[C@H]1O[C@H](C[C@H](O)[C@@H]1O)O[C@H]2[C@@H](O)C[C@@H](O[C@@H]2C)O[C@H]3[C@@H](O)C[C@@H](O[C@@H]3C)O[C@H]4CC[C@@]5(C)[C@H](CC[C@@H]6[C@@H]5C[C@@H](O)[C@]7(C)[C@H](CC[C@]67O)C/8=C/C(=O)OC8)C4,viability,[1]; top concentration 92.2 µM,48.5
same,AC50 for reduction of cell viability,[2],191 nM
COc1cccc2c1C(=O)c1c(O)c3c(c(O)c1C2=O)C[C@@](O)(C(=O)CO)C[C@@H]3O[C@H]1C[C@H](N)[C@H](O)[C@H](C)O1,viability,[1]; top concentration 46.1 µM,34.7
same,AC50 for reduction of cell viability,[2],1870 nM
CCOc1cc2ncc(C#N)c(Nc3ccc(OCc4ccccn4)c(Cl)c3)c2cc1NC(=O)/C=C/CN(C)C,viability,[1]; top concentration 46.1 µM,54.2
same,AC50 for reduction of cell viability,[2],74.3 nM
CCOc1cc2ncc(C#N)c(Nc3ccc(F)c(Cl)c3)c2cc1NC(=O)/C=C/CN(C)C,viability,[1]; top concentration 46.1 µM,76.1
same,AC50 for reduction of cell viability,[2],29.6 nM
CCC[S+](=O)([O-])Nc1ccc(F)c(C(=O)c2c[nH]c3ncc(-c4ccc(Cl)cc4)cc23)c1F,viability,[1]; top concentration 46.1 µM,54.9
same,AC50 for reduction of cell viability,[2],5900 nM
CC(C)c1cc(C(=O)N2Cc3ccc(CN4CCN(C)CC4)cc3C2)c(O)cc1O,viability,[1]; top concentration 46.1 µM,75.9
same,AC50 for reduction of cell viability,[2],833 nM
CC[S+](=O)([O-])Nc1ccc2c(c1)/C(=C(/Nc1ccc(CN3CCCCC3)cc1)c1ccccc1)C(=O)N2,viability,[1]; top concentration 46.1 µM,50
same,AC50 for reduction of cell viability,[2],1320 nM
Cc1nc(NC(=O)N2CCC[C@H]2C(N)=O)sc1-c1csc(C(C)(C)C)n1,viability,[1]; top concentration 46.1 µM,30.8
same,AC50 for reduction of cell viability,[2],10500 nM
c1nc2c(NC3CCCCC3)nc(Nc3ccc(N4CCOCC4)cc3)nc2[nH]1,viability,[1]; top concentration 46.1 µM,31.3
same,AC50 for reduction of cell viability,[2],18700 nM
CC1(COc2ccc3c(c2)ncn3-c2ccc3cccc(N4CCC(N)CC4)c3n2)COC1,viability,[1]; top concentration 46.1 µM,51.9
same,AC50 for reduction of cell viability,[2],10.5 nM
C[S+](=O)([O-])N1CCN(Cc2cc3nc(-c4cccc5[nH]ncc45)nc(N4CCOCC4)c3s2)CC1,viability,[1]; top concentration 46.1 µM,55.1
same,AC50 for reduction of cell viability,[2],235 nM
CC[C@@]1(O)C(=O)OC\C2=C1\C=C\3N(CC4=C3N=C5C=CC=CC5=C4)C2=O,viability,[1]; top concentration 46.1 µM,32.3
same,AC50 for reduction of cell viability,[2],16600 nM
O=C(OC)[C@]12CC[C@@]3(C)[C@]4(C)CC[C@H]5[C@@](C)(C)C(=O)C(=C[C@]5(C)C4=CC(=O)[C@@H]3[C@@H]2C[C@](C)(C)CC1)C#N,viability,[1]; top concentration 46.1 µM,4.67
same,AC50 for reduction of cell viability,[2],2960 nM
COC(=O)/C=C/C(=O)OC,viability,[1]; top concentration 46.1 µM,55.3
same,AC50 for reduction of cell viability,[2],3720 nM
C[C@@]12O[C@@H](C[C@]1(O)CO)n1c3ccccc3c3c4c(c5c6ccccc6n2c5c31)CNC4=O,viability,[1]; top concentration 46.1 µM,7.55
same,AC50 for reduction of cell viability,[2],5900 nM
OCCCNc1cc(-c2ccnc(Nc3cccc(Cl)c3)n2)ccn1,viability,[1]; top concentration 46.1 µM,63.6
same,AC50 for reduction of cell viability,[2],105 nM
Cc1nc(Nc2n[nH]c3c2CN(C(=O)N[C@H](CN(C)C)c2ccccc2)C3(C)C)c2sccc2n1,viability,[1]; top concentration 46.1 µM,7.84
same,AC50 for reduction of cell viability,[2],3720 nM
O=C(NCCCNc1nc(Nc2cccc(NC(=O)N3CCCC3)c2)ncc1I)c1cccs1,viability,[1]; top concentration 46.1 µM,3.39
same,AC50 for reduction of cell viability,[2],10500 nM
COc1ccc(Nc2cc(-c3cnc(N)nc3)nc(N3CCOCC3)n2)cn1,viability,[1]; top concentration 46.1 µM,31.5
same,AC50 for reduction of cell viability,[2],2960 nM
O=C(/C=C/c1ccc(CN(CCO)CCc2c[nH]c3ccccc23)cc1)NO,viability,[1]; top concentration 46.1 µM,44.9
same,AC50 for reduction of cell viability,[2],5900 nM
COC[C@H](NC(=O)c1cnc(C)s1)C(=O)N[C@@H](COC)C(=O)N[C@@H](Cc1ccccc1)C(=O)[C@@]1(C)CO1,viability,[1]; top concentration 46.1 µM,8.89
same,AC50 for reduction of cell viability,[2],6620 nM
Nc1nc(F)nc2c1ncn2[C@@H]1O[C@H](CO)[C@@H](O)[C@H]1O,viability,[1]; top concentration 46.1 µM,47.8
same,AC50 for reduction of cell viability,[2],3720 nM
COC[C@H]1OC(=O)C2=COC3=C2[C@@]1(C)\C4=C(\[C@@H]5CC[C@H](O)[C@@]5(C)C[C@H]4OC(C)=O)C3=O,viability,[1]; top concentration 46.1 µM,57.4
same,AC50 for reduction of cell viability,[2],4180 nM
CNC(=O)c1cccc(-c2ccc3c(N4CCOC[C@@H]4C)nc(N4CCOC[C@@H]4C)nc3n2)c1,viability,[1]; top concentration 46.1 µM,59
same,AC50 for reduction of cell viability,[2],23.5 nM
COc1cccc2cc(-c3nc(C4CCC(C(=O)O)CC4)n4ncnc(N)c34)[nH]c12 (stereo not given),viability,[1]; top concentration 46.1 µM,59.5
same,AC50 for reduction of cell viability,[2],187 nM
COc1cc2ncn(-c3cc(OCc4ccccc4C(F)(F)F)c(C(N)=O)s3)c2cc1OC,viability,[1]; top concentration 46.1 µM,18.8
same,AC50 for reduction of cell viability,[2],23500 nM
NC(=O)Nc1cc(-c2cccc(F)c2)sc1C(=O)N[C@H]1CCCNC1,viability,[1]; top concentration 46.1 µM,12.8
same,AC50 for reduction of cell viability,[2],16600 nM
COc1c(C)cnc(Cn2cnc3c(Cl)nc(N)nc32)c1C,viability,[1]; top concentration 46.1 µM,61.4
same,AC50 for reduction of cell viability,[2],2960 nM
COc1ccc(F)c(F)c1C(=O)c1cnc(NC2CCN([S+](C)(=O)[O-])CC2)nc1N,viability,[1]; top concentration 46.1 µM,55.6
same,AC50 for reduction of cell viability,[2],4690 nM
COc1cccc2c1C(=O)c1c(O)c3c(c(O)c1C2=O)C[C@@](O)(C(=O)CO)C[C@@H]3O[C@H]1C[C@H](N)[C@@H](O)[C@H](C)O1,viability,[1]; top concentration 46.1 µM,48.5
same,AC50 for reduction of cell viability,[2],2090 nM
COC(=O)Nc1ccc(-c2nc(N3CCOCC3)c3cnn(C4CCN(Cc5cccnc5)CC4)c3n2)cc1,viability,[1]; top concentration 46.1 µM,23.5
same,AC50 for reduction of cell viability,[2],1050 nM
C[C@H]1CCC/C=C/C2C[C@H](O)C[C@H]2[C@H](O)/C=C/C(=O)O1 (stereo not given in full),viability,[1]; top concentration 46.1 µM,31.1
same,AC50 for reduction of cell viability,[2],10.5 nM
CCn1nnc2c(N3CCOCC3)nc(-c3ccc(NC(=O)Nc4ccc(C(=O)N5CCN(C)CC5)cc4)cc3)nc21,viability,[1]; top concentration 46.1 µM,54.4
same,AC50 for reduction of cell viability,[2],9.35 nM
COc1ccc(-c2ccc3c(N4CCOCC4)nc(N4C[C@@H](C)O[C@@H](C)C4)nc3n2)cc1CO,viability,[1]; top concentration 46.1 µM,62.3
same,AC50 for reduction of cell viability,[2],1870 nM
COc1ccc(-c2ccc3ncc4c(c3c2)n(-c2ccc(N3CCNCC3)c(C(F)(F)F)c2)c(=O)n4C)cn1,viability,[1]; top concentration 46.1 µM,3.16
same,AC50 for reduction of cell viability,[2],8330 nM
Cc1nc(N)ncc1-c1nc(N2CCOCC2)c2sc(C(C)(C)O)cc2n1,viability,[1]; top concentration 46.1 µM,45.7
same,AC50 for reduction of cell viability,[2],332 nM
CC(C)C1=N[N](C\2=C1C(=O)N\C(=N2)CC3=CC=C(OCCO)C=C3)C4=C(Cl)C=CC=C4Cl,viability,[1]; top concentration 46.1 µM,47.9
same,AC50 for reduction of cell viability,[2],132 nM
Cc1ccc(NC(=O)C2(c3ccc4c(c3)OC(F)(F)O4)CC2)nc1-c1cccc(C(=O)O)c1,viability,[1]; top concentration 46.1 µM,6.42
same,AC50 for reduction of cell viability,[2],1660 nM
COc1ccc(-c2ccc3c(N4CCOC[C@@H]4C)nc(N4CCOC[C@@H]4C)nc3n2)cc1CO,viability,[1]; top concentration 46.1 µM,57.2
same,AC50 for reduction of cell viability,[2],37.2 nM
CCNC(=O)c1noc(-c2cc(C(C)C)c(O)cc2O)c1-c1ccc(CN2CCOCC2)cc1,viability,[1]; top concentration 46.1 µM,74.5
same,AC50 for reduction of cell viability,[2],296 nM
Cc1cc(Nc2cc(NC(=O)c3c(Cl)cccc3Cl)ccn2)nc(N)n1,viability,[1]; top concentration 46.1 µM,13
same,AC50 for reduction of cell viability,[2],20900 nM
O=C1NC(=O)/C(=C/c2ccc3nccc(-c4ccncc4)c3c2)S1,viability,[1]; top concentration 46.1 µM,18.7
same,AC50 for reduction of cell viability,[2],235 nM
COc1cc(Nc2c(C#N)cnc3cc(OCCCN4CCN(C)CC4)c(OC)cc23)c(Cl)cc1Cl,viability,[1]; top concentration 46.1 µM,74.7
same,AC50 for reduction of cell viability,[2],2350 nM
CN[C@@H]1C[C@H]2O[C@@](C)([C@@H]1OC)n1c3ccccc3c3c4c(c5c6ccccc6n2c5c31)C(=O)N[C@H]4O,viability,[1]; top concentration 46.1 µM,8.86
same,AC50 for reduction of cell viability,[2],1480 nM
CC(/C=C/C(=O)NO)=C\[C@@H](C)C(=O)c1ccc(N(C)C)cc1,viability,[1]; top concentration 46.1 µM,26
same,AC50 for reduction of cell viability,[2],20900 nM
Nc1ncnc2c1c(-c1cnc3[nH]ccc3c1)nn2C1CCCC1,viability,[1]; top concentration 46.1 µM,7.41
same,AC50 for reduction of cell viability,[2],8330 nM
O=C(Nc1ccc([N+](=O)[O-])cc1Cl)c1cc(Cl)ccc1O,viability,[1]; top concentration 46.1 µM,53.9
same,AC50 for reduction of cell viability,[2],4180 nM
C=CC(=O)Nc1cccc(Nc2nc(NC3CCC(N(C)C)CC3)nc3c2ncn3C(C)C)c1 (stereo not given),viability,[1]; top concentration 46.1 µM,8.03
same,AC50 for reduction of cell viability,[2],2960 nM
CN(C)C1CCN(C(=O)c2ccc(NC(=O)Nc3nc(N4CCOCC4)nc(N4CCOCC4)n3)cc2)CC1,viability,[1]; top concentration 46.1 µM,44.5
same,AC50 for reduction of cell viability,[2],37.2 nM
CN[S+](=O)([O-])CCc1ccc2[nH]cc(C3CCN(C)CC3)c2c1,viability,[1]; top concentration 46.1 µM,70
same,AC50 for reduction of cell viability,[2],2350 nM
